# Measurements: patent US11504362B2, “Liquid dosage forms to treat cancer” (Exelixis, Inc., priority 2017, dated 2022)
# “And” between values parts separate entries of the source, which are not always exact repeats. Equal entries are not always repeated.
# How the values were obtained:
# [1] = tested on: tumor models (human medullary thyroid cancer, human breast cancer, and rat glioma); conditions: cited from earlier work
# [2] = tested on: RET; conditions: administration to mice; Yakes, et al. 2011; cited from earlier work
# [3] = Mass balance: excretion and recovery of 14C total radioactivity in urine and feces; assay type: in vivo, human
# Text: Methodology: This was an open-label, single-dose, single-center, mass balance, Phase 1 study in healthy male volunteers. There were two study periods: a Screening Period, during which subjects underwent assessments to determine their eligibility for the study, and an On-study Period, which started on Day-1 (‘check-in’ day) when the subject was admitted to the Celerion clinic. […] However, subjects who were discharged from the clinic before Day 28 were required to return to the clinic for all remaining scheduled pharmacokinetic blood sampling and the Day 28 safety assessments. Subjects not meeting radioactivity release criteria by Day 28 could be asked to remain confined in the clinic or continue collection of urine and feces at home (returning samples to the clinic daily) for up to an additional 7 days (through to Day 35). Due to the fact that by Day 35 subjects had still not met release criteria, subjects were given the option of withdrawing from the study or completing the additional 14-day collection period (either in the clinic or as a daily visitor) with urine and feces collections and daily adverse event (AE) inquiries. All urine and fecal collections for all subjects stopped following the conclusion of the Day 49 scheduled events regardless of percentage of total radioactive dose recovered.
# A single dose oral solution was administered at Hour 0 on Day 1 by the clinic staff. The dose was given via the scintillation vial. Following dosing, the scintillation vial was rinsed 3 times with room temperature distilled water, and the rinsate was administered to the subject. Residual radioactivity was determined for each dosing vial. The total volume of liquid administered including radiolabelled study drug, rinses, and water given for dosing (in addition to the rinses) was the same for each subject.
# Mass balance was calculated as the percent of total administered radioactivity recovered in urine and feces. For the purpose of calculating mass balance, the amount of administered radioactivity was defined as the total radioactivity in the dosing solution minus any radioactivity lost due to emesis (if any occurred), adsorption to the dosing vial, etc.
# Subjects were asked to empty their bladders within approximately 60 minutes prior to dosing for the pre-dose sample. Samples were collected during the 0 to 8 hours and 8 to 24 hours post-dose intervals, and then continuing in 24-hour intervals through Day 49. For subjects who met early release criteria, sampling could cease upon discharge from the clinic. […] One subject was released from the clinic following the 864 hour interval (Day 37) collection and no longer provided excreta samples.
# Subjects were asked to bring a pre-dose stool sample with them at check-in (produced within 24 hours of check-in). Stools produced between subject check-in and dosing were collected for the pre-dose sample as well, and the sample produced nearest to dosing was used as the pre-dose sample. Post-dose stools were collected in 24-hour intervals through the morning of Day 49. For subjects who met early release criteria, sampling could cease upon discharge from the clinic. […] One subject was released from the clinic following the 864 hour interval (Day 37) collection and no longer provided excreta samples.
# For each subject, multiple fecal specimens from each 24-hour interval were combined into a pre-weighed wide mouth polypropylene/polyethylene container and appropriately labeled. For each interval, the fecal sample was weighed to determine the final fecal weight. Each sample was homogenized into a slurry (approximately 20% suspension in water) from which the necessary aliquots were taken.
# Mass balance was calculated as the percent of total administered radioactivity recovered in urine and feces. […]
# [4] = clinical; conditions: human, in vivo
# Procedure: Samples for 2 subjects were used for the investigation study. Therefore, only 6 subjects' PK profiles were determined using a radio-quantitation method.
# [5] = rodent and non-rodent models; cited from earlier work
# [6] = molecular target: VEGFR2 (Mus musculus, UniProt P35918); conditions: administration to mice; Yakes, et al. 2011; cited from earlier work
# [7] = Percentage of 14C radioactivity associated with erythrocytes in whole blood (ETR); assay type: in vivo, human; conditions: single 175 mg oral dose
# Procedure: To determine the percentage of radioactivity associated with erythrocytes in whole blood over time (ETR; calculated only for time points that whole blood is collected), the following was calculated:
# The amount of ^14C radioactivity in plasma versus whole blood, adjusted for the hematocrit, at the specific time points of comparison (ETR=Xe/Xb=1−[Cp*(1−Hct)/Cb], where Xe and Xb stands for amount of radioactivity in erythrocyte or whole blood, respectively. Hematocrit values for Days-1, 2, and 4 were averaged for use in this calculation.
# Blood samples (4 mL) for whole blood analysis of total radioactivity were collected within 15 minutes pre-dose and at 1, 2, 4, 8, 14, 24, and 72 hours post-dose. […] Samples collected were used to determine the percentage of radioactivity associated with erythrocytes in whole blood over time (calculated only for time points that whole blood was collected).
# To determine the percentage of radioactivity associated with erythrocytes in whole blood over time (calculated only for time points where whole blood was collected), the following was calculated: the amount of radioactivity in plasma versus whole blood, adjusted for the hematocrit, at the specific time points of comparison (ETR=Xe/Xb=1−[Cp*(1-Hct)/Cb], where Cp stands for amount of radioactivity in plasma and Cb stands for the amount of radioactivity in blood and Hct stands for hematocrit value. Hematocrit values for Days-1, 2, and 4 were averaged for use in this calculation.
# [8] = single 175 mg oral dose, through 48 days, mean ± SD (% CV), n = 8
# VEGFR2, sequence (P35918 20-1345): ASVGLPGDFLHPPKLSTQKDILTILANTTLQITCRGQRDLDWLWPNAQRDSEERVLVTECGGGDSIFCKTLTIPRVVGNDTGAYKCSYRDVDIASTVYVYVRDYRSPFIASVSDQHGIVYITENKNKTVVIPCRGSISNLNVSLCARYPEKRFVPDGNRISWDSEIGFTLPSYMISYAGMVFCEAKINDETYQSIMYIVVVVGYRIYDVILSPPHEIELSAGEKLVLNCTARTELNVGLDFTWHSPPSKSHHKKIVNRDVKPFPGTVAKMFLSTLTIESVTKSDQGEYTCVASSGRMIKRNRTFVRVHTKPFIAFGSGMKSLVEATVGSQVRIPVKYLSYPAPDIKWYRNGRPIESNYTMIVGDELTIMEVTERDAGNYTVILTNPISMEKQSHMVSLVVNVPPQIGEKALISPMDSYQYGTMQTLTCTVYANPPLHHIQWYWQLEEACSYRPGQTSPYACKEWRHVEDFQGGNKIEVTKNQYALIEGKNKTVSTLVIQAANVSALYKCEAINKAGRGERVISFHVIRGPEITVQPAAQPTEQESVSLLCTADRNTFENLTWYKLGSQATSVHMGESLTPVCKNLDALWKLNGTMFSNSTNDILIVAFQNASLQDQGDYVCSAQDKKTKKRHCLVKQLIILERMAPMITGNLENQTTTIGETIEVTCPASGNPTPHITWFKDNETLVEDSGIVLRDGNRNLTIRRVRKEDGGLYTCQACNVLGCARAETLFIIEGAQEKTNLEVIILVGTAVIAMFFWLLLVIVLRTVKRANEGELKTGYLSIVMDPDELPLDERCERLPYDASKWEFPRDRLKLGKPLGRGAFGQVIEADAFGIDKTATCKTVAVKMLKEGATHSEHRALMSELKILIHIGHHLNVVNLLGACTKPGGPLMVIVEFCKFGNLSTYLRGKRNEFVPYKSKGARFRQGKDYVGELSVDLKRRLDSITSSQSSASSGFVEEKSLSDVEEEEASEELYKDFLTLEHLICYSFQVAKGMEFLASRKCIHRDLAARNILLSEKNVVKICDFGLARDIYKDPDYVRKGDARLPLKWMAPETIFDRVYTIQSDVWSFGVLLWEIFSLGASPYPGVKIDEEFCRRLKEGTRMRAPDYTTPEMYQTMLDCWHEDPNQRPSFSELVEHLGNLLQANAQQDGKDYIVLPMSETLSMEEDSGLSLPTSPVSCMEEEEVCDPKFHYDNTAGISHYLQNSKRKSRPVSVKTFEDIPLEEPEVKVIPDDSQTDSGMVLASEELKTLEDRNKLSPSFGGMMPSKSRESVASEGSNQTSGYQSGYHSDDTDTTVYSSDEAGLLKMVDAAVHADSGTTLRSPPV
structure (smiles),measurement,setting,value
"COc1cc2nccc(Oc3ccc(NC(=O)C4(C(=O)Nc5ccc(F)cc5)CC4)cc3)c2cc1OC [XL184, N-(4-{[6,7-bis(methyloxy)quinolin-4-yl]oxy}phenyl)-N′-(4-fluorophenyl)cyclopropane-1,1-dicarboxamide]",Tumor regression,"[1]; human medullary thyroid cancer, human breast cancer, and rat glioma models",marked tumor regression
same,Tumor growth inhibition,[1]; multiple tumor models,significant tumor growth inhibition
same,Immunohistochemistry findings,[1]; within 24 hours after administration,"rapid effects on the endothelium, vascular breakdown, and tumor cell death"
same,Inhibition of RET in vivo,[2],dose-dependent inhibition
same,Urine cumulative excretion of 14C total radioactivity,"[3]; Day 1 (24 hrs), individual subjects",2.32% and 4.30% and 3.22% and 7.81% and 3.81% and 3.89% and 4.78% and 3.38%
same,Urine cumulative excretion of 14C total radioactivity,"[3]; Day 1 (24 hrs), mean",4.19%
same,Urine cumulative excretion of 14C total radioactivity,"[3]; Day 2 (48 hrs), individual subjects",4.70% and 8.75% and 6.39% and 14.86% and 7.68% and 8.34% and 9.68% and 7.07%
same,Urine cumulative excretion of 14C total radioactivity,"[3]; Day 2 (48 hrs), mean",8.43%
same,Urine cumulative excretion of 14C total radioactivity,"[3]; Day 3 (72 hrs), individual subjects",7.26% and 13.09% and 9.22% and 20.34% and 11.00% and 12.23% and 13.67% and 9.75%
same,Urine cumulative excretion of 14C total radioactivity,"[3]; Day 3 (72 hrs), mean",12.07%
same,Urine cumulative excretion of 14C total radioactivity,"[3]; Day 4 (96 hrs), individual subjects",9.65% and 16.19% and 11.53% and 24.39% and 13.47% and 15.11% and 16.57% and 12.11%
same,Urine cumulative excretion of 14C total radioactivity,"[3]; Day 4 (96 hrs), mean",14.88%
same,Urine cumulative excretion of 14C total radioactivity,"[3]; Day 5 (120 hrs), individual subjects",11.74% and 18.60% and 13.44% and 27.04% and 15.59% and 17.46% and 18.91% and 13.86%
same,Urine cumulative excretion of 14C total radioactivity,"[3]; Day 5 (120 hrs), mean",17.08%
same,Urine cumulative excretion of 14C total radioactivity,"[3]; Day 6 ([…]), mean",18.72%
same,Urine cumulative excretion of 14C total radioactivity,"[3]; Day 7 ([…]), mean",20.04%
same,Urine cumulative excretion of 14C total radioactivity,"[3]; Day 8 (192 hrs), individual subjects",16.27% and 23.34% and 16.60% and 31.32% and 19.36% and 21.56% and 23.11% and 18.17%
same,Urine cumulative excretion of 14C total radioactivity,"[3]; Day 8 (192 hrs), mean",21.22%
same,Urine cumulative excretion of 14C total radioactivity,"[3]; Day 9 (216 hrs), individual subjects",17.35% and 24.24% and 17.22% and 32.02% and 20.33% and 22.44% and 23.99% and 19.02%
same,Urine cumulative excretion of 14C total radioactivity,"[3]; Day 9 (216 hrs), mean",22.08%
same,Urine cumulative excretion of 14C total radioactivity,"[3]; Day 10 (240 hrs), individual subjects",18.26% and 25.17% and 17.67% and 32.59% and 21.12% and 23.24% and 24.71% and 19.68%
same,Urine cumulative excretion of 14C total radioactivity,"[3]; Day 10 (240 hrs), mean",22.81%
same,Urine cumulative excretion of 14C total radioactivity,"[3]; Day 11 ([…]), mean",23.42%
same,Cumulative recovery of total radioactivity in feces,[3]; [8],53.79% of Dose
same,Cumulative recovery of total radioactivity in urine,[3]; [8],27.29% of Dose
same,"Cumulative recovery of total radioactivity, total (urine and feces)","[3]; single 175 mg oral dose, within 48 days, mean ± SD (% CV), n = 8",81.09% of Dose
same,AUC0-24,[4],10700 ± 3170 h · ngEq/mL
same,AUC0-72,[4],23800 ± 9340 h · ngEq/mL
same,AUC0-inf,[4],40300 ± 12300 h · ngEq/mL
same,AUC0-t,[4],38100 ± 12800 h · ngEq/mL
same,concentration at 0.5 h,"[4]; po, 175 mg, Plasma concentration, 0.50 h, individual subject, single 175 mg oral [14C]-XL184 (100 μCi), healthy male subjects, radio-quantitative method",283 ng/mL
same,concentration at 5 h,"[4]; po, 175 mg, Plasma concentration, 5.00 h, individual subject, single 175 mg oral [14C]-XL184 (100 μCi), healthy male subjects, radio-quantitative method",512 ng/mL
same,concentration at 336 h,"[4]; po, 175 mg, Plasma concentration, 336.00 h, individual subject, single 175 mg oral [14C]-XL184 (100 μCi), healthy male subjects, radio-quantitative method",10.3 ng/mL
same,concentration at 72 h,"[4]; po, 175 mg, Plasma concentration, individual subject, single 175 mg oral [14C]-XL184 (100 μCi), healthy male subjects, radio-quantitative method",101 ng/mL
same,ke1,[4]; male,0.0112 ± 0.0053 h⁻¹
same,Tmax,"[4]; male, Tmax",~1.99 h
same,concentration at 72 h,"[4]; male, po, 175 mg, Plasma concentration, Mean, N=6, single 175 mg oral [14C]-XL184 (100 μCi), healthy male subjects, radio-quantitative method",159 ng/mL
same,concentration at 72 h,"[4]; male, po, 175 mg, Plasma concentration, Median, N=6, single 175 mg oral [14C]-XL184 (100 μCi), healthy male subjects, radio-quantitative method",162 ng/mL
same,Oral bioavailability,[5],orally bioavailable
same,Inhibition of VEGFR2 in vivo,[6],dose-dependent inhibition
same,Percentage of 14C Radioactivity Associated with Erythrocytes in Whole Blood (ETR),"[7]; 1.00 h, Max (N=8)",14%
same,Percentage of 14C Radioactivity Associated with Erythrocytes in Whole Blood (ETR),"[7]; 1.00 h, Mean (N=8)",7.08%
same,Percentage of 14C Radioactivity Associated with Erythrocytes in Whole Blood (ETR),"[7]; 1.00 h, Median (N=8)",8.0%
same,Percentage of 14C Radioactivity Associated with Erythrocytes in Whole Blood (ETR),"[7]; 1.00 h, Min (N=8)",−3.4%
same,Percentage of 14C Radioactivity Associated with Erythrocytes in Whole Blood (ETR),"[7]; 1.00 h, individual subjects",6.87% and 14.1% (2×) and −3.37% and 9.27% and 3.64% and 9.17% and 2.89%
same,Percentage of 14C Radioactivity Associated with Erythrocytes in Whole Blood (ETR),"[7]; 2.00 h, GM, geometric mean (N=8)",7.30%
same,Percentage of 14C Radioactivity Associated with Erythrocytes in Whole Blood (ETR),"[7]; 2.00 h, Max (N=8)",14%
same,Percentage of 14C Radioactivity Associated with Erythrocytes in Whole Blood (ETR),"[7]; 2.00 h, Mean (N=8)",7.85%
same,Percentage of 14C Radioactivity Associated with Erythrocytes in Whole Blood (ETR),"[7]; 2.00 h, Median (N=8)",6.7%
same,Percentage of 14C Radioactivity Associated with Erythrocytes in Whole Blood (ETR),"[7]; 2.00 h, Min (N=8)",4.1%
same,Percentage of 14C Radioactivity Associated with Erythrocytes in Whole Blood (ETR),"[7]; 2.00 h, individual subjects",6.90% and 13.7% and 6.40% and 4.14% and 5.07% and 5.90% and 10.3% and 10.5%
same,Percentage of 14C Radioactivity Associated with Erythrocytes in Whole Blood (ETR),"[7]; 4.00 h, GM, geometric mean (N=8)",5.96%
same,Percentage of 14C Radioactivity Associated with Erythrocytes in Whole Blood (ETR),"[7]; 4.00 h, Max (N=8)",9.0%
same,Percentage of 14C Radioactivity Associated with Erythrocytes in Whole Blood (ETR),"[7]; 4.00 h, Mean (N=8)",6.40%
same,Percentage of 14C Radioactivity Associated with Erythrocytes in Whole Blood (ETR),"[7]; 4.00 h, Median (N=8)",6.5%
same,Percentage of 14C Radioactivity Associated with Erythrocytes in Whole Blood (ETR),"[7]; 4.00 h, Min (N=8)",2.1%
same,Percentage of 14C Radioactivity Associated with Erythrocytes in Whole Blood (ETR),"[7]; 4.00 h, individual subjects",8.27% and 6.45% and 6.26% and 8.96% and 6.74% and 2.05% and 6.55% and 5.88%
same,Percentage of 14C Radioactivity Associated with Erythrocytes in Whole Blood (ETR),"[7]; 8.00 h, GM, geometric mean (N=8)",10.9%
same,Percentage of 14C Radioactivity Associated with Erythrocytes in Whole Blood (ETR),"[7]; 8.00 h, Max (N=8)",17%
same,Percentage of 14C Radioactivity Associated with Erythrocytes in Whole Blood (ETR),"[7]; 8.00 h, Mean (N=8)",12.2%
same,Percentage of 14C Radioactivity Associated with Erythrocytes in Whole Blood (ETR),"[7]; 8.00 h, Median (N=8)",13%
same,Percentage of 14C Radioactivity Associated with Erythrocytes in Whole Blood (ETR),"[7]; 8.00 h, Min (N=8)",3.4%
same,Percentage of 14C Radioactivity Associated with Erythrocytes in Whole Blood (ETR),"[7]; 8.00 h, individual subjects",12.8% and 17.1% and 13.6% and 17.2% and 12.0% and 3.37% and 15.4% and 6.19%
same,Percentage of 14C Radioactivity Associated with Erythrocytes in Whole Blood (ETR),"[7]; 14.00 h, GM, geometric mean (N=8)",11.7%
same,Percentage of 14C Radioactivity Associated with Erythrocytes in Whole Blood (ETR),"[7]; 14.00 h, Max (N=8)",17%
same,Percentage of 14C Radioactivity Associated with Erythrocytes in Whole Blood (ETR),"[7]; 14.00 h, Mean (N=8)",12.3%
same,Percentage of 14C Radioactivity Associated with Erythrocytes in Whole Blood (ETR),"[7]; 14.00 h, Median (N=8)",13%
same,Percentage of 14C Radioactivity Associated with Erythrocytes in Whole Blood (ETR),"[7]; 14.00 h, Min (N=8)",6.1%
same,Percentage of 14C Radioactivity Associated with Erythrocytes in Whole Blood (ETR),"[7]; 14.00 h, individual subjects",6.13% and 17.0% and 12.1% and 7.45% and 12.7% and 14.1% and 14.0% and 14.9%
same,Distribution of radioactivity between plasma and red blood cells,[7],present primarily in plasma and not markedly associated with red blood cells
